Laboratory results from patent publication US20230028880A1, “CD38-BINDING AGENTS AND USES THEREOF” (Biohaven Therapeutics Ltd., priority 2019, published 2023).
Where “and” joins values, the source holds several entries; their conditions need not be identical. Equal values may be shown once. Entries after “also recorded” stand apart in the source; their conditions may differ. Bridges are numbered along the chain shown (N, C = ends). Roman numbers before positions name the chains, in order. Where no end group is shown, it is not given here. [ ]: non-standard residue; d: D form. branched linker from compound 8 (carries γGlu-hexadecanedioic acid) = not defined here; Bip = N[C@@H](Cc1ccc(-c2ccccc2)cc1)C(=O)O; Ahp(2) = CCCCC[C@H](N)C(=O)O

Experiments:
[1] = system: Effector cells (ADCC reporter cells) with Daudi cells; experiment: ADCC reporter assay: Daudi cells, IVIG and ADCC reporter effector cells (luciferase, RLU); format: cell-based; settings: IVIG; for Luminescence, ADCC reporter assay: duplicate columns
Experimental: Daudi (ATCC CCL-213) cells were resuspended in Opti-MEM (Thermo Fisher Scientific #31985070), counted (Life Technologies Countless II cell counter) and plated (5,000 cells in 25 uL/well; Corning plates: 3917). Compounds w diluted in DMSO (MP 191418) to 1000× the starting concentration used in the assay into a 96 well polypropylene plate (Corning 3357). They were then serially diluted in ½ log increments to generate 8 concentrations in DMSO (assay dependent). These DMSO stocks were then step diluted 1/250 into Opti-MEM. Step diluted compound range was then added into the polypropylene assay plate 25 uL/well. The human antibody solution (Grifols IVIG Fleogogamma #61953-0005-2) was diluted to 40 ug/mL and added 25 uL/well. Effector cells (ADCC reporter cells—Promega kit: G7018) were added 37,500 in 25 uL/well. The assay was then incubated 18 h at 37° C. Following the induction period, the plate was equilibrated to 25° C. followed the addition of the luciferase substrate (75 uL/well, 1 vial in 10 mL of Bio-Glo assay buffer, Promega kit: G7018). The luminescence was measured (Biotek Synergy H1 microplate reader).

Daudi cells [2] = experiment: KILR ADCC killing assay: KILR-transfected Daudi cells with purified NK cells (% dead cells); format: cell-based; settings: for % dead cells, KILR ADCC killing assay: KILR Daudi cells with purified NK cells, duplicate columns
Description: In some embodiments, CD38-ABT ARMs bind to target cells and antibodies, e.g., human antibodies. In some embodiments, such ternary structures present antibodies to effector cells such as NK cell and bind to, e.g., CD16a receptors. […] Daudi cells were transfected with KILR reporter construct (DiscoverX #97-0002). An attenuated lentivirus was designed to deliver a Moloney Murine Leukemia Virus (MMLV) engineered to drive expression of a housekeeping gene tagged with Enhanced ProLabel (ePL) a beta-Galactosidase (beta-gal) reporter fragment. This construct was designed to remain inside cells. Death leads to the release of the KILR reporter protein into the medium. Detection reagent (DiscoverX #97-0001L) contained the complementing beta-gal reporter fragment enzyme acceptor (EA). The two components combined to generate a chemiluminescent signal.

NK cells = experiment: Depletion of CD38-expressing effector cells: purified NK cells, 18 h, Zombie viability dye; format: cell-based, human; settings: I-9 300 nM-10 nM, Daratumumab 3 ug/mL-0.1 ug/mL, IvIG 10 ug/mL, 18 h (FIG. 4)
Description: In some embodiments, provided technologies provides various advantages compared to existing CD38-based technologies, e.g., those using CD38 antibodies. […] As appreciated by those skilled in the art, various technologies can be utilized to assess depleting of CD38-expressing effector cells. In one example, NK cells were purified from frozen stock using 3×10^7 PBMC preparations ([…] technologies) using EasySep™ Human NK cell Isolation Kit […] Technologies (cat #17955) according to manufacturer's instructions. NK cells were plated at the density of 2×10^6 cells per mL of OPTIMEM media, in a 100 uL volume per well of round bottom 96 well plates. Daratumumab was added to a final concentration range of 3 ug/mL to 0.1 ug/mL. […] IvIG was used at a final concentration of 10 ug/mL. Cells were mixed by pipetting up and down and incubated for 18 h at 37° C. At the end of the incubation period, cells were centrifuged at 400 g for 5 min and re-suspended in PBS. Following this, cells were stained with 1 uM Zombie viability dye (Biolegend, catalog #423111) according to manufacturer's instructions and incubated for 15 minutes at room temperature. […] Cells were analyzed on BD FACSCelesta flow cytometer (BD Biosciences). […] Percentages of Zombie green positive NK cells were analyzed and graphed using GraphPad Prism software.

Daudi cells [3] = experiment: Ternary binding assay: recruitment of PE-labeled human IgG1k to Daudi cells (flow cytometry, MFI); format: cell-based; settings: duplicate columns
Experimental: (§1) Various technologies can be utilized to assess and/or characterize recruitment of antibodies to target cells, e.g., cancer cells. One such assay is a ternary binding assay. An exemplary protocol is described herein. Compounds were diluted in DMSO (MP 191418) to 1000× the starting concentration used in the assay into a 96 well polypropylene plate (Corning 3357). They were then serially diluted in ½ log increments to generate 8-12 concentrations in DMSO (assay dependent). These DMSO stocks were then step diluted 1/100 into PBS (VWR Cat. #20012043). Step diluted compound range was then added into the polypropylene assay plate 1/10 the volume of the assay volume. Daudi (ATCC CCL-213), a non-adherent cell line, were counted and centrifuged and resuspended at a concentration of 100,000 cells per 90 ul in Flow buffer: 1% BSA (American Bio AB01088-00100); 0.5 mM EDTA (VWR 45001-122); PBS (VWR Cat. #20012043) with 11.1 ug/mL human IgG1k Phycoerythrin labeled (SouthernBiotech #0151K-09 PE). The cells were then added into the polypropylene plate with the step diluted compounds and incubated at 37° C. for 30 min. At the end of the incubation, the cells were centrifuged and washed 2× with How buffer containing 0.5% Tween 20 (BP337-500). Samples were analyzed on a BD FacsCelesta. Mean fluorescence was analyzed using Graphpad Prism and curves were fit using log(inhibitor) vs. response—Variable slope (four parameters).

CD38 [4] = target: T1, CD38 (human, UniProt P28907 1-300); experiment: cell-based or functional assay
CD38 [5] = target: T1, CD38; experiment: cell-based or functional assay; remark: listed apart in the source
[6] = target: CD38 on Daudi cells (ATCC CCL-213) (human) (UniProt P28907); experiment: cell-based or functional assay
[7] = target: CD38 on Daudi cells (human) (UniProt P28907); experiment: ternary binding, flow cytometry: Daudi cells + PE human IgG1k
CD38 [8] = target: T1, CD38; experiment: ternary binding, flow cytometry: PE-labelled human IgG1k recruited to Daudi cells
Experimental: as §1, with “Daudi (ATCC CCL-213), a non-adherent cell line, were counted and centrifuged and resuspended at a concentration of 100,000 cells per 90 ul in Flow buffer: 1% BSA (American Bio AB01088-00100); 0.5 mM EDTA (VWR 45001-122); PBS (VWR Cat. #20012043) with 11.1 ug/mL human IgG1k Phycoerythrin labeled (SouthernBiotech #0151K-09 PE).” left out

CCCCC[C@@H]1NC(=O)[C@H](CCCNC(=N)N)NC(=O)[C@H](C)NC(=O)CSC[C@@H](C(=O)NCCOCCOCCOCCOCCOCCOCCn2nnc3c2CCC2C(CC3)C2COC(=O)N2CCC(C(=O)NCC(=O)N[C@H](CCC(=O)N[C@H](CCC(=O)N[C@H](CCC(=O)NCCCCCCCCCCCC(=O)O)C(=O)N[C@H](CCC(=O)N[C@H](CCC(=O)NCC(=O)NCC(=O)N[C@@H](CC(=O)O)C(=O)N[C@H]3CSSC[C@@H](C(=O)N[C@H](C(=O)O)[C@@H](C)O)NC(=O)[C@H](Cc4c[nH]c5ccccc45)NC(=O)[C@H](C(C)C)NC(=O)[C@H](CC(C)C)NC(=O)[C@H](CCC(=O)O)NC(=O)CNC(=O)[C@H](CC(C)C)NC(=O)[C@H](Cc4c[nH]cn4)NC(=O)[C@H](Cc4c[nH]c5ccccc45)NC(=O)[C@H](C)NC3=O)C(=O)O)C(=O)O)C(=O)O)C(=O)O)CC2)NC(=O)[C@H](CC(=O)O)NC(=O)[C@H](CCCCC)NC(=O)[C@H](Cc2ccc(-c3ccccc3)cc2)NC(=O)[C@H](CC(C)C)NC(=O)[C@H](C(C)C)NC(=O)CNC(=O)[C@H](CC(=O)O)NC(=O)[C@H](Cc2c[nH]cn2)NC(=O)[C@H](Cc2ccc(O)cc2)NC1=O (stereo partly drawn) [I-9]
EC50 ([1]; ADCC reporter assay): 5.5 nM | EC70 ([1]; ADCC reporter cells, 18 h, one set of experiment (FIG. 2)): about 0.92 nM | Luminescence, ADCC reporter assay ([1]; compound 0.3 nM, 18 h): 18458 RLU and 20362 RLU | Luminescence, ADCC reporter assay ([1]; compound 1 nM, 18 h): 20777 RLU and 20342 RLU | Luminescence, ADCC reporter assay ([1]; compound 3 nM, 18 h): 24006 RLU and 24206 RLU | Luminescence, ADCC reporter assay ([1]; compound 10 nM, 18 h): 35274 RLU and 44761 RLU | Luminescence, ADCC reporter assay ([1]; compound 30 nM, 18 h): 55170 RLU and 59273 RLU | Luminescence, ADCC reporter assay ([1]; compound 100 nM, 18 h): 60746 RLU and 68867 RLU | Luminescence, ADCC reporter assay ([1]; compound 300 nM, 18 h): 55313 RLU and 76306 RLU | Luminescence, ADCC reporter assay ([1]; compound 1000 nM, 18 h): 51790 RLU and 65856 RLU | EC50 (Daudi cells [2]; KILR Daudi cells, purified NK cells, one set of experiments (FIG. 3)): 6.7 nM | % dead cells, KILR ADCC killing assay (Daudi cells [2]; compound 0.3 nM): 5.1% and 5.5% | % dead cells, KILR ADCC killing assay (Daudi cells [2]; compound 1 nM): 4.8% and 4.7% | % dead cells, KILR ADCC killing assay (Daudi cells [2]; compound 3 nM): 5% | % dead cells, KILR ADCC killing assay (Daudi cells [2]; compound 10 nM): 5.3% and 5.7% | % dead cells, KILR ADCC killing assay (Daudi cells [2]; compound 30 nM): 6.1% and 6.9% | % dead cells, KILR ADCC killing assay (Daudi cells [2]; compound 100 nM): 6.6% and 7.4% | % dead cells, KILR ADCC killing assay (Daudi cells [2]; compound 300 nM): 7.3% and 8.1% | % dead cells, KILR ADCC killing assay (Daudi cells [2]; compound 1000 nM): 6.8% and 6.7% | Depletion of CD38-expressing effector cells (NK cells) (NK cells): did not deplete CD38-expressing effector cells; also recorded: do not significantly deplete effector cells | MFI, recruitment of PE-labeled human IgG1k to Daudi cells (Daudi cells [3]; compound 0.03 nM): 2297 and 2037 | MFI, recruitment of PE-labeled human IgG1k to Daudi cells (Daudi cells [3]; compound 0.1 nM): 2514 and 2495 | MFI, recruitment of PE-labeled human IgG1k to Daudi cells (Daudi cells [3]; compound 0.3 nM): 2861 and 2727 | MFI, recruitment of PE-labeled human IgG1k to Daudi cells (Daudi cells [3]; compound 1 nM): 3063 and 2925 | MFI, recruitment of PE-labeled human IgG1k to Daudi cells (Daudi cells [3]; compound 3 nM): 4268 and 4210 | MFI, recruitment of PE-labeled human IgG1k to Daudi cells (Daudi cells [3]; compound 10 nM): 7133 and 6933 | MFI, recruitment of PE-labeled human IgG1k to Daudi cells (Daudi cells [3]; compound 30 nM): 10630 and 8384 | MFI, recruitment of PE-labeled human IgG1k to Daudi cells (Daudi cells [3]; compound 100 nM): 9899 and 10608 | MFI, recruitment of PE-labeled human IgG1k to Daudi cells (Daudi cells [3]; compound 300 nM): 7835 and 7873 | MFI, recruitment of PE-labeled human IgG1k to Daudi cells (Daudi cells [3]; compound 1000 nM): 4929 and 5108 | MFI, recruitment of PE-labeled human IgG1k to Daudi cells (Daudi cells [3]; compound 3000 nM): 4383 and 4301

B1: I-32 (peptide)
peptide 1: {‑C(O)CH2‑}-AR[Ahp(2)]YHDGVL[Bip][Ahp(2)]DC-{branched linker from compound 8 (carries γGlu-hexadecanedioic acid)}
peptide 2: DDCAWHLGELVWCT-NH2
modifications: disulfide II:3-II:13; not fully specified (N-terminus); reading uncertain; also: N-terminus of chain 2 amide-bonded to the branched linker (one conjugate), thioether at chain A 13 to a chain's N-terminus via -C(O)-CH2- (from 2-bromoacetic acid)
notes: One covalent conjugate
EC50 (nM), ADCC reporter cells (CD38 [4]): 63 nM | RLU at 100 nM (CD38 [5]): 21800 RLU | % dead cells at 1 nM [6]: 14.4% and 13.5% | % dead cells at 3 nM [6]: 12.8% and 13.5% | % dead cells at 10 nM [6]: 13% and 13.3% | % dead cells at 30 nM [6]: 14.7% and 14.3% | % dead cells at 100 nM [6]: 17.7% and 17.2% | % dead cells at 300 nM [6]: 19.5% and 20.1% | % dead cells at 1000 nM [6]: 19.7% and 20.4% | % dead cells at 3000 nM [6]: 16.9% and 16.8% | MFI at 0.3 nM [7]: 1990 and 1770 | MFI at 1 nM [7]: 2310 and 1770 | MFI at 3 nM [7]: 1690 and 1630 | MFI at 10 nM [7]: 2890 and 1820 | MFI at 30 nM [7]: 4350 and 2820 | MFI at 100 nM [7]: 13800 and 19500 | MFI at 300 nM [7]: 26600 and 20600 | MFI at 1000 nM [7]: 28500 and 32400 | MFI at 3000 nM [7]: 23000 and 26100 | IC50 (CD38 [8]): 88 nM
